Test results as given in US20220315554A1, “COMPOUNDS COMPRISING A […] LIGAND AND USE THEREOF” (priority 2019, published 2022).
Numbered stars: 1 amine (or outer) side, 2 acyl side, 3 side chain; on linkers, the order of the positions; unused ones are H or OH. Bridge positions count the residues as written; N and C are the ends. Square brackets hold non-standard residues; d marks the D form. Peptide text beside a SMILES is read from it. * marks the point of attachment. X3 = NC(=O)[C@H](CCCCNC(=O)CN1CCN(CC(=O)O)CCN(CC(=O)O)CCN(CC(=O)O)CC1)NC(=O)CCC(=O)NCCCOCCOCCOCCCN*; mXylylene = c1cc(C[*:1])cc(C[*:2])c1; 4Pal = N[C@@H](Cc1ccncc1)C(=O)O; 2Thi = N[C@@H](Cc1cccs1)C(=O)O; Hexanoyl = CCCCCC(=O)*

Columns and labels:
Human recombinant FAP = biological target: T1, Human recombinant FAP (Homo sapiens, UniProt Q12884); assay: FRET-based FAP protease activity assay; assay type: biochemical; parameters: purchased R&D systems 3715-SE; conditions: pIC50 Category (Activity), recombinant human FAP, FRET substrate, 37° C.
T1 sequence (Q12884 1-760): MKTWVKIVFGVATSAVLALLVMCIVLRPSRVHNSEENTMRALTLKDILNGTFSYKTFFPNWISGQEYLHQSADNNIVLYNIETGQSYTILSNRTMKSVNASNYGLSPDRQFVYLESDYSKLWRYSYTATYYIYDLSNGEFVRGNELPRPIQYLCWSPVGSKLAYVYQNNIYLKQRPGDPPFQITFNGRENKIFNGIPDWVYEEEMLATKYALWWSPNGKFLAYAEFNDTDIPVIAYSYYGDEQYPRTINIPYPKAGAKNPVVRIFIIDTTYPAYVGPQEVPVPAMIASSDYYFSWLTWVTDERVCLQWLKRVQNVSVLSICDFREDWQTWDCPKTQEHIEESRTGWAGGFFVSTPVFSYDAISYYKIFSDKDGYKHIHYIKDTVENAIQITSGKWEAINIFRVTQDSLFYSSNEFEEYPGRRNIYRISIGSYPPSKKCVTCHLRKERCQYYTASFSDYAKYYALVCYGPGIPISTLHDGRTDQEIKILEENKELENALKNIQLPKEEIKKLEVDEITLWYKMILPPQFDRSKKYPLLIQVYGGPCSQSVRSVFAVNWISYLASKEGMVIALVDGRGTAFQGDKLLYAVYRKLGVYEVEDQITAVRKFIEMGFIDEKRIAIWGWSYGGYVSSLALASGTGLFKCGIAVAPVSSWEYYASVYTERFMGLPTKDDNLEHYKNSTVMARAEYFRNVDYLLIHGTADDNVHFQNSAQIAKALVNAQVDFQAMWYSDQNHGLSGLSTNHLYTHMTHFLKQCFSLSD

[1] = biological target: T2, FAP-expressing human WI-38 fibroblasts (Homo sapiens, UniProt Q12884); assay: Competitive FACS binding assay; conditions: pIC50 Category (FACS), competition with 3 nM Cy5-labeled compound, WI-38 fibroblasts, 4° C., 1 hour
T2 construct: FAP-expressing human WI-38 fibroblasts (ECACC) were cultured in EMEM; host or cells: WI-38 human fibroblasts
T2 sequence (Q12884 1-760): T1 sequence (Q12884 1-760)
Protocol: Cells were analyzed in an Attune NxT flow cytometer. […]

For `CSCC[C@H](NC(C)=O)C(=O)N[C@H]1CSCc2cccc(c2)CSC[C@@H](C(=O)N[C@@H](CC(=O)O)C(=O)N[C@@H](Cc2c[nH]cn2)C(=O)N[C@@H](Cc2cccs2)C(=O)N[C@@H](CCCNC(=N)N)C(=O)N[C@@H](CC(=O)O)C(N)=O)NC(=O)[C@H](Cc2ccccc2)NC(=O)[C@H](CCC(=O)O)NC(=O)[C@H]([C@@H](C)O)NC(=O)[C@@H]2CCCN2C(=O)[C@@H]2CCCN2C1=O` [3BP-3193, Ac-Met-[Cys(3MeBn)-Pro-Pro-Thr-Glu-Thi-Cys]-Asp-His-Phe-Arg-Asp-NH2] (Ac-MCPPTEFCDH[2Thi]RD-NH2; linker 2-8 via mXylylene), the IC50 (Human recombinant FAP) was < 0.01 µM and the IC50 [1] was < 0.01 µM.

Work on `CSCC[C@H](NC(C)=O)C(=O)N[C@H]1CSCc2cccc(c2)CSC[C@@H](C(=O)N[C@@H](C)C(=O)N[C@@H](Cc2c[nH]cn2)C(=O)N[C@@H](Cc2ccccc2)C(=O)N[C@@H](CCCNC(=N)N)C(=O)N[C@@H](CC(=O)O)C(N)=O)NC(=O)[C@H](Cc2ccccc2)NC(=O)[C@H](CCC(=O)O)NC(=O)[C@H]([C@@H](C)O)NC(=O)[C@@H]2CCCN2C(=O)[C@@H]2CCCN2C1=O` [3BP-3194, Ac-Met-[Cys(3MeBn)-Pro-Pro-Thr-Glu-Phe-Cys]-Ala-His-Phe-Arg-Asp-NH2] (Ac-MCPPTEFCAHFRD-NH2; linker 2-8 via mXylylene) yielded an IC50 (Human recombinant FAP) of 0.01 to 0.0794 µM and an IC50 [1] of 0.01 to 0.0794 µM.

In the case of `CSCC[C@H](NC(C)=O)C(=O)N[C@H]1CSCc2cccc(c2)CSC[C@@H](C(=O)N[C@@H](CC(=O)O)C(=O)N[C@@H](C)C(=O)N[C@@H](Cc2ccccc2)C(=O)N[C@@H](CCCNC(=N)N)C(=O)N[C@@H](CC(=O)O)C(N)=O)NC(=O)[C@H](Cc2ccccc2)NC(=O)[C@H](CCC(=O)O)NC(=O)[C@H]([C@@H](C)O)NC(=O)[C@@H]2CCCN2C(=O)[C@@H]2CCCN2C1=O` [3BP-3195, Ac-Met-[Cys(3MeBn)-Pro-Pro-Thr-Glu-Phe-Cys]-Asp-Ala-Phe-Arg-Asp-NH2] (Ac-MCPPTEFCDAFRD-NH2; linker 2-8 via mXylylene), the IC50 (Human recombinant FAP) is reported as 0.01 to 0.0794 µM and the IC50 [1] is reported as < 0.01 µM.

For `CSCC[C@H](NC(C)=O)C(=O)N[C@H]1CSCc2cccc(c2)CSC[C@@H](C(=O)N[C@@H](CC(=O)O)C(=O)N[C@@H](Cc2c[nH]cn2)C(=O)N[C@@H](Cc2ccccc2)C(=O)N[C@@H](C)C(=O)N[C@@H](CC(=O)O)C(N)=O)NC(=O)[C@H](Cc2ccccc2)NC(=O)[C@H](CCC(=O)O)NC(=O)[C@H]([C@@H](C)O)NC(=O)[C@@H]2CCCN2C(=O)[C@@H]2CCCN2C1=O` [3BP-3197, Ac-Met-[Cys(3MeBn)-Pro-Pro-Thr-Glu-Phe-Cys]-Asp-His-Phe-Ala-Asp-NH2] (Ac-MCPPTEFCDHFAD-NH2; linker 2-8 via mXylylene), the IC50 (Human recombinant FAP) was 0.1 to 0.794 µM and the IC50 [1] was 0.1 to 0.794 µM.

`CSCC[C@H](NC(C)=O)C(=O)N[C@H]1CSCc2cccc(c2)CSC[C@@H](C(=O)N[C@@H](CC(=O)O)C(=O)N[C@@H](Cc2c[nH]cn2)C(=O)N[C@@H](Cc2ccccc2)C(=O)N[C@@H](CCCNC(=N)N)C(=O)N[C@@H](C)C(N)=O)NC(=O)[C@H](Cc2ccccc2)NC(=O)[C@H](CCC(=O)O)NC(=O)[C@H]([C@@H](C)O)NC(=O)[C@@H]2CCCN2C(=O)[C@@H]2CCCN2C1=O` [3BP-3198, Ac-Met-[Cys(3MeBn)-Pro-Pro-Thr-Glu-Phe-Cys]-Asp-His-Phe-Arg-Ala-NH2] (Ac-MCPPTEFCDHFRA-NH2; linker 2-8 via mXylylene) was tested, and the IC50 (Human recombinant FAP) was < 0.01 µM and the IC50 [1] was < 0.01 µM.

In the case of `CSCC[C@H](NC(C)=O)C(=O)N[C@H]1CSCc2cccc(c2)CSC[C@@H](C(=O)N[C@@H](CC(=O)O)C(=O)N[C@@H](Cc2c[nH]cn2)C(=O)N[C@@H](Cc2ccccc2)C(N)=O)NC(=O)[C@H](Cc2ccccc2)NC(=O)[C@H](CCC(=O)O)NC(=O)[C@H]([C@@H](C)O)NC(=O)[C@@H]2CCCN2C(=O)[C@@H]2CCCN2C1=O` [3BP-3199, Ac-Met-[Cys(3MeBn)-Pro-Pro-Thr-Glu-Phe-Cys]-Asp-His-Phe-NH2] (Ac-MCPPTEFCDHF-NH2; linker 2-8 via mXylylene), the IC50 (Human recombinant FAP) is reported as 0.01 to 0.0794 µM and the IC50 [1] is reported as 0.1 to 0.794 µM.

With `CSCC[C@H](NC(C)=O)C(=O)N[C@H]1CSCc2cccc(c2)CSC[C@@H](C(=O)N[C@@H](CC(=O)O)C(=O)N[C@@H](Cc2c[nH]cn2)C(=O)N[C@@H](Cc2ccccc2)C(=O)N[C@@H](CCCNC(=N)N)C(N)=O)NC(=O)[C@H](Cc2ccccc2)NC(=O)[C@H](CCC(=O)O)NC(=O)[C@H]([C@@H](C)O)NC(=O)[C@@H]2CCCN2C(=O)[C@@H]2CCCN2C1=O` [3BP-3200, Ac-Met-[Cys(3MeBn)-Pro-Pro-Thr-Glu-Phe-Cys]-Asp-His-Phe-Arg-NH2] (Ac-MCPPTEFCDHFR-NH2; linker 2-8 via mXylylene) the IC50 (Human recombinant FAP) was < 0.01 µM and the IC50 [1] was < 0.01 µM.

In the case of `CSCC[C@H](NC(C)=O)C(=O)N[C@H]1CSCc2cccc(c2)CSC[C@@H](C(=O)N[C@@H](CC(=O)O)C(=O)N[C@@H](Cc2c[nH]cn2)C(=O)N[C@@H](Cc2ccccc2)C(=O)N[C@@H](CCCNC(=N)N)C(=O)N[C@H](CC(=O)O)C(N)=O)NC(=O)[C@H](Cc2ccccc2)NC(=O)[C@H](CCC(=O)O)NC(=O)[C@H]([C@@H](C)O)NC(=O)[C@@H]2CCCN2C(=O)[C@@H]2CCCN2C1=O` [3BP-3213, Ac-Met-[Cys(3MeBn)-Pro-Pro-Thr-Glu-Phe-Cys]-Asp-His-Phe-Arg-asp-NH2] (Ac-MCPPTEFCDHFR[dD]-NH2; linker 2-8 via mXylylene), the IC50 (Human recombinant FAP) is reported as < 0.01 µM and the IC50 [1] is reported as < 0.01 µM.

In the case of `CSCC[C@H](NC(C)=O)C(=O)N[C@H]1CSCc2cccc(c2)CSC[C@@H](C(=O)N[C@@H](CC(=O)O)C(=O)N[C@@H](Cc2c[nH]cn2)C(=O)N[C@@H](Cc2ccccc2)C(=O)N[C@@H](CCCNC(=N)N)C(=O)N[C@@H](CC(=O)O)C(N)=O)NC(=O)[C@H](Cc2ccccc2)NC(=O)[C@H](CCC(=O)O)NC(=O)[C@H]([C@@H](C)O)NC(=O)[C@@H]2CCCN2C(=O)CNC1=O` [3BP-3214, Ac-Met-[Cys(3MeBn)-Gly-Pro-Thr-Glu-Phe-Cys]-Asp-His-Phe-Arg-Asp-NH2] (Ac-MCGPTEFCDHFRD-NH2; linker 2-8 via mXylylene), the IC50 (Human recombinant FAP) is reported as < 0.01 µM and the IC50 [1] is reported as < 0.01 µM.

`CSCC[C@H](NC(C)=O)C(=O)N[C@H]1CSCc2cccc(c2)CSC[C@@H](C(=O)N[C@@H](CC(=O)O)C(=O)N[C@@H](Cc2c[nH]cn2)C(=O)N[C@@H](Cc2ccccc2)C(=O)N[C@@H](CCCNC(=N)N)C(=O)N[C@@H](CC(=O)O)C(N)=O)NC(=O)[C@H](Cc2ccccc2)NC(=O)[C@H](CCC(=O)O)NC(=O)[C@H]([C@@H](C)O)NC(=O)[C@@H]2CCCN2C(=O)[C@@H](C)NC1=O` [3BP-3215, Ac-Met-[Cys(3MeBn)-ala-Pro-Thr-Glu-Phe-Cys]-Asp-His-Phe-Arg-Asp-NH2] (Ac-MC[dA]PTEFCDHFRD-NH2; linker 2-8 via mXylylene) gave an IC50 (Human recombinant FAP) of 0.1 to 0.794 µM and an IC50 [1] of 0.1 to 0.794 µM.

In the case of `CCCCCC(=O)N[C@H]1CSCc2cccc(c2)CSC[C@@H](C(=O)N[C@@H](CC(=O)O)C(=O)N[C@@H](Cc2c[nH]cn2)C(=O)N[C@H](Cc2ccccc2)C(=O)N[C@@H](CCCNC(=N)N)C(=O)NCCCOCCOCCOCCCNC(=O)CCC(=O)N[C@@H](CCCCNC(=O)CN2CCN(CC(=O)O)CCN(CC(=O)O)CCN(CC(=O)O)CC2)C(N)=O)NC(=O)[C@H](Cc2ccccc2)NC(=O)[C@H](CCC(=O)O)NC(=O)[C@H]([C@@H](C)O)NC(=O)[C@@H]2CCCN2C(=O)[C@@H]2CCCN2C1=O` [3BP-3276, Hex-[Cys(3MeBn)-Pro-Pro-Thr-Glu-Phe-Cys]-Asp-His-phe-Arg-Ttds-Lys(DOTA)-NH2] (Hexanoyl-CPPTEFCDH[dF]R-X3; linker 1-7 via mXylylene), the IC50 (Human recombinant FAP) is reported as < 0.01 µM and the IC50 [1] is reported as < 0.01 µM.

With `CCCCCC(=O)N[C@H]1CSCc2cccc(c2)CSC[C@@H](C(=O)N[C@@H](CC(=O)O)C(=O)N[C@@H](Cc2c[nH]cn2)C(=O)N[C@@H](Cc2ccncc2)C(=O)N[C@H](CCCNC(=N)N)C(=O)NCCCOCCOCCOCCCNC(=O)CCC(=O)N[C@@H](CCCCNC(=O)CN2CCN(CC(=O)O)CCN(CC(=O)O)CCN(CC(=O)O)CC2)C(N)=O)NC(=O)[C@H](Cc2ccccc2)NC(=O)[C@H](CCC(=O)O)NC(=O)[C@H]([C@@H](C)O)NC(=O)[C@@H]2CCCN2C(=O)[C@@H]2CCCN2C1=O` [3BP-3277, Hex-[Cys(3MeBn)-Pro-Pro-Thr-Glu-Phe-Cys]-Asp-His-Ppa-arg-Ttds-Lys(DOTA)-NH2] (Hexanoyl-CPPTEFCDH[4Pal][dR]-X3; linker 1-7 via mXylylene) the IC50 (Human recombinant FAP) was < 0.01 µM and the IC50 [1] was < 0.01 µM.

With `CCCCCC(=O)N[C@H]1CSCc2cccc(c2)CSC[C@@H](C(=O)N[C@@H](CC(=O)O)C(=O)N[C@@H](CCCNC(=N)N)C(=O)O)NC(=O)[C@H](Cc2ccccc2)NC(=O)[C@H](CCC(=O)O)NC(=O)[C@H]([C@@H](C)O)NC(=O)[C@@H]2CCCN2C(=O)[C@@H]2CCCN2C1=O` [3BP-3299, Hex-[Cys(3MeBn)-Pro-Pro-Thr-Glu-Phe-Cys]-Asp-Arg-NH2] (Hexanoyl-CPPTEFCDR-OH; linker 1-7 via mXylylene) the IC50 (Human recombinant FAP) was < 0.01 µM and the IC50 [1] was < 0.01 µM.
